# Results from article PMC8835841, “Novel NK1R-Targeted ^68Ga-/^177Lu-Radioconjugates with Potential Application against Glioblastoma Multiforme: Preliminary Exploration of Structure–Activity Relationships” (International Journal of Molecular Sciences, 2022).
# Assays:
# hNK1R = biological target: T1, hNK1R (Homo sapiens, UniProt P25103); assay: Competitive radioligand binding assay, hNK1-CHO cell homogenates, [3H]-(Sar9,Met(O2)11)-Substance P; conditions: for IC50: hNK1-CHO cell homogenates, mean of three independent experiments in duplicate unless stated, read-out: IC50 (Mean ± SD) hNK1R; for fold weaker hNK1R binding than parent compound: relative to L732,138 (1c)
# T1 construct: expressed in transfected cells; host or cells: CHO-K1 (hNK1-CHO), gift from Dr. Attila Keresztes and Dr. John M. Streicher
# Procedure: The CHO-K1 cells with a stable overexpression of the human NK1 receptor, denoted further on as hNK1-CHO cells, were obtained as a gift from Dr. Attila Keresztes and Dr. John M. Streicher. The cells were maintained in a humidified atmosphere with 5% CO2 at 37 °C, in Ham’s F12 medium (Corning, Corning, NY, USA) supplemented with 10% Foetal Bovine Serum (CytoGen, Wetzlar, Germany) and 400 μg/mL G418 (Corning, Corning, NY, USA).
# When the cells reached approximately 90% confluence, they were harvested by treatment with 0.05% trypsin/EDTA (Corning, Corning, NY, USA). After centrifugation at 1500 rpm for 5 min, the cells were homogenized in a glass tissue homogenizer in ice-cold 50 mM Tris-HCl buffer (pH 7.4) with 5 mM MnCl2. The preparation was collected by centrifugation at 13,000 rpm for 25 min at 4 °C, and then the pellet was suspended in 50 mM Tris-HCl buffer. The homogenates were stored at −80 °C for later use. The BCA assay (Thermo Scientific, Waltham, MA, USA) was used to determine the protein concentration in the homogenates.
# (§1) The binding affinity of the tested compounds for human and rat NK1R was determined in competitive radioligand binding assays following the method previously described. As a source of the receptor proteins, homogenates obtained from rat brains (obtained as described in Ref [30]) or homogenates made from hNK1-CHO cells were used. […] The final reaction volumes were 250 μL and 1 mL, for the human and rat NK1R determinations, respectively. […] The binding reaction mixtures were incubated in a shaking water bath at 25 °C for 60 min. The reaction was terminated by rapid filtration through Whatman GF/B filter (Gaithersburg, MD) presoaked in 0.5% polyethyleneimine and washed three times with 2 mL of cold saline. The filters were placed in 24-well plates and immersed in a Betaplate Scint scintillation solution (Perkin Elmer, Waltham, MA, USA). The filter-bound radioactivity was determined by scintillation counter MicroBeta LS, Trilux (PerkinElmer, Waltham, MA, USA).
# (§2) The displacement curves were drawn and the mean IC50 values were determined with standard deviations (GraphPad Prism version 8.0, San Diego, CA, USA). At least three independent experiments (carried out in duplicate) were performed.
# rNK1R = biological target: T2, rNK1R (Rattus norvegicus, UniProt P14600); assay: Competitive radioligand binding assay, rat brain homogenates, [3H]-(Sar9,Met(O2)11)-Substance P; conditions: mean of three independent experiments in duplicate unless stated; for IC50: read-out: IC50 (Mean ± SD) rNK1R
# T2 construct: As a source of the receptor proteins, homogenates obtained from rat brains; from tissue; host or cells: rat brain homogenate
# Procedure: as §1, §2
# T2 sequence (P14600 whole entry): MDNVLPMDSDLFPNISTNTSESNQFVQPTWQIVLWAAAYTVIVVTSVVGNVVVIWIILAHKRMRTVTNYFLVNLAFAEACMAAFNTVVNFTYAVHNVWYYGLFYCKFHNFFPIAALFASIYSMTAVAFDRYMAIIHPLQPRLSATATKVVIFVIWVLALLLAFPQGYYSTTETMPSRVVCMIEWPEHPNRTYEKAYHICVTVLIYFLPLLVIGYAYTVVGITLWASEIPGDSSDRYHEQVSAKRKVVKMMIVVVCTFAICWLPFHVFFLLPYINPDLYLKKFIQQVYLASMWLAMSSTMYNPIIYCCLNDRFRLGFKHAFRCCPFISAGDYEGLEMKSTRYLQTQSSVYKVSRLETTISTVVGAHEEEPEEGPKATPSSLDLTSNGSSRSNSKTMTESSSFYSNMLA
# T1 sequence (P25103 whole entry): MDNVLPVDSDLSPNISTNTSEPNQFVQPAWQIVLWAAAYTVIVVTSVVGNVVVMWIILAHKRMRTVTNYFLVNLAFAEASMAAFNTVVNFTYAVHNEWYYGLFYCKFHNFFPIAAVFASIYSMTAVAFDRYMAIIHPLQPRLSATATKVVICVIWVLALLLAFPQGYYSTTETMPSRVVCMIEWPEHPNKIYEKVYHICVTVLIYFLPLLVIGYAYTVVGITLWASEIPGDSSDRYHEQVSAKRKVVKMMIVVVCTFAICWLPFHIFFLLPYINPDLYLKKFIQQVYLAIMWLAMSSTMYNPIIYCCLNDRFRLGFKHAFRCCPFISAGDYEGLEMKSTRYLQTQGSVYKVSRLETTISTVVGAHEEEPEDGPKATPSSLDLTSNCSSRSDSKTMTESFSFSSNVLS
SMILES,IC50 (hNK1R) [µM],IC50 (rNK1R) [µM],fold weaker hNK1R binding than parent compound (hNK1R) [×],IC50 (Mean ± SD) rNK1R (rNK1R)
"C[C@@H](NC(=O)OC(C)(C)C)C(=O)N[C@@H](Cc1c[nH]c2ccccc12)C(=O)OCc1cc(C(F)(F)F)cc(C(F)(F)F)c1 [Compound 2a, 3,5-bis(trifluoromethyl)benzyl (tert-butoxycarbonyl)-D-alanyl-L-tryptophanate]",0.135 ± 0.108,1.53 ± 0.279,–,–
"CC(=O)N[C@H](C)C(=O)N[C@@H](Cc1c[nH]c2ccccc12)C(=O)OCc1cc(C(F)(F)F)cc(C(F)(F)F)c1 [Compound 2c, 3,5-bis(trifluoromethyl)benzyl acetyl-D-alanyl-L-tryptophanate]",0.0253 ± 0.0004,2.28 ± 0.703,–,–
O=C(O)CN1CCN(CC(=O)O)CCN(CC(=O)N[C@@H](Cc2c[nH]c3ccccc23)C(=O)OCc2cc(C(F)(F)F)cc(C(F)(F)F)c2)CCN(CC(=O)O)CC1 [Ga-1d],0.0051 ± 0.002,0.112 ± 0.003,–,–
"CC(C)(C)OC(=O)N[C@@H](Cc1c[nH]c2ccccc12)C(=O)OCc1cc(C(F)(F)F)cc(C(F)(F)F)c1 [Compound 1a, 3,5-bis(trifluoromethyl)benzyl (tert-butoxycarbonyl)-L-tryptophanate]",0.18 ± 0.112,2.93 ± 1.52,7,–
"NCCCCCC(=O)NCCCCCC(=O)N[C@@H](Cc1c[nH]c2ccccc12)C(=O)OCc1cc(C(F)(F)F)cc(C(F)(F)F)c1.O=C(O)C(F)(F)F [Compound 5b, (S)-6-((6-((1-((3,5-bis(trifluoromethyl)benzyl)oxy)-3-(1H-indol-3-yl)-1-oxopropan-2-yl)amino)-6-oxohexyl)amino)-6-oxohexan-1-aminium 2,2,2-trifluoroacetate]",0.0204 ± 0.0102,0.572 ± 0.041,–,submicromolar
"N[C@@H](Cc1c[nH]c2ccccc12)C(=O)OCc1cc(C(F)(F)F)cc(C(F)(F)F)c1.O=C(O)C(F)(F)F [Compound 1b, (S)-1-((3,5-bis(trifluoromethyl)benzyl)oxy)-3-(1H-indol-3-yl)-1-oxopropan-2-aminium 2,2,2-trifluoroacetate]",0.359 ± 0.132,> 10,14,–
O=C(O)CN1CCN(CC(=O)O)CCN(CC(=O)NCCCCCC(=O)N[C@@H](Cc2c[nH]c3ccccc23)C(=O)OCc2cc(C(F)(F)F)cc(C(F)(F)F)c2)CCN(CC(=O)O)CC1 [Compound 4d],0.0087 ± 0.0032,–,–,–
"C[C@@H](NC(=O)OC(C)(C)C)C(=O)N[C@H](C)C(=O)N[C@@H](Cc1c[nH]c2ccccc12)C(=O)OCc1cc(C(F)(F)F)cc(C(F)(F)F)c1 [Compound 3a, 3,5-bis(trifluoromethyl)benzyl (tert-butoxycarbonyl)-D-alanyl-D-alanyl-L-tryptophanate]",0.0139 ± 0.0112,0.745 ± 0.311,–,submicromolar
"C[C@@H](N)C(=O)N[C@@H](Cc1c[nH]c2ccccc12)C(=O)OCc1cc(C(F)(F)F)cc(C(F)(F)F)c1 [Compound 2b, (R)-1-(((S)-1-((3,5-bis(trifluoromethyl)benzyl)oxy)-3-(1H-indol-3-yl)-1-oxopropan-2-yl)amino)-1-oxopropan-2-aminium 2,2,2-trifluoroacetate]",0.0254 ± 0.0125,4.68 ± 1.32,–,–
"CC(C)(C)OC(=O)NCCCCCC(=O)NCCCCCC(=O)N[C@@H](Cc1c[nH]c2ccccc12)C(=O)OCc1cc(C(F)(F)F)cc(C(F)(F)F)c1 [Compound 5a, 3,5-bis(trifluoromethyl)benzyl (6-(6-((tert-butoxycarbonyl)amino)hexanamido)hexanoyl)-L-tryptophanate]",0.0045 ± 0.0028,0.762 ± 0.295,–,submicromolar
"CC(C)(C)OC(=O)NCCCCCC(=O)N[C@@H](Cc1c[nH]c2ccccc12)C(=O)OCc1cc(C(F)(F)F)cc(C(F)(F)F)c1 [Compound 4a, 3,5-bis(trifluoromethyl)benzyl (6-((tert-butoxycarbonyl)amino)hexanoyl)-L-tryptophanate]",0.0607 ± 0.0319,1.66 ± 1.05,–,–
